Source: ChEMBL document CHEMBL1142732, “In-depth study of tripeptide-based alpha-ketoheterocycles as inhibitors of thrombin. Effective utilization of the S1' subsite and its implications to structure-based drug design” (J Med Chem, 2005)

Target: T1, Prothrombin (Homo sapiens, UniProt P00734)
Experiment: Binding affinity determined against human alpha thrombin; call rule not given here

| Compound | Ki |
| --- | --- |
| N=C(N)NCCC[C@H](NC(=O)CN1CCCC[C@H](NS(=O)(=O)Cc2ccccc2)C1=O)C(=O)c1nc2ccccc2s1 | 16 nM |
| N=C(N)NCCCC(NC(=O)[C@@H]1CCCN1C(=O)[C@@H](CC1CCCCC1)NCC(=O)O)C(=O)c1nc2ccccc2s1 (stereo partly drawn) | 0.36 nM |
| N=C(N)NCCCC(NC(=O)[C@@H]1CCCN1C(=O)C(O)C1c2ccccc2-c2ccccc21)C(=O)c1nc2ccccc2s1 (stereo partly drawn) | 3.1 nM |
| N=C(N)NCCCC(NC(=O)[C@@H]1CCCN1C(=O)CC(c1ccccc1)c1ccccc1)C(=O)c1nc2ccccc2s1 (stereo partly drawn) | 1.1 nM |
| CS(=O)(=O)CC[C@H](NS(=O)(=O)Cc1ccccc1)C(=O)N1CCC[C@H]1C(=O)N[C@@H](CCCNC(=N)N)C(=O)c1nc2ccccc2s1 | 1.5 nM |
| CN[C@H](Cc1ccccc1)C(=O)N1CCC[C@H]1C(=O)NC(CCCN=C(N)N)C(=O)c1nc2ccccc2n1C (stereo partly drawn) | 8.1 nM |
| CN[C@@H](C(=O)N1CCC[C@H]1C(=O)NC(CCCN=C(N)N)C(=O)c1nc2ccccc2s1)c1ccccc1 (stereo partly drawn) | 0.46 nM |
| CN[C@H](Cc1ccccc1)C(=O)N1CCC[C@H]1C(=O)N[C@@H](C(=O)c1nc2ccccc2s1)C1CCC(CN)CC1 (stereo partly drawn) | 1450 nM |
| N=C(N)NCCC[C@H](NC(=O)[C@@H]1CCCN1C(=O)[C@H](CO)NS(=O)(=O)c1cccc2ccccc12)C(=O)c1nc2ccccc2s1 | 0.78 nM |
| CNCCCC[C@@H](NC(=O)[C@@H]1CCCN1C(=O)[C@@H](Cc1ccccc1)NC)C(=O)c1nc2ccccc2s1 | 3500 nM |
| CN[C@H](Cc1ccccc1)C(=O)N1CCCC[C@H]1C(=O)NC(CCCN=C(N)N)C(=O)c1nc2ccccc2s1 (stereo partly drawn) | 0.34 nM |

Species on record: Homo sapiens
Experiment: Inhibitory concentration against gel filtered platelet aggregation induced by alpha thrombin
Format: functional

| Compound | IC50 |
| --- | --- |
| N=C(N)NCCC[C@H](NC(=O)CN1CCCC[C@H](NS(=O)(=O)Cc2ccccc2)C1=O)C(=O)c1nc2ccccc2s1 | 47 nM |
| N=C(N)NCCCC(NC(=O)[C@@H]1CCCN1C(=O)[C@@H](CC1CCCCC1)NCC(=O)O)C(=O)c1nc2ccccc2s1 (stereo partly drawn) | 16 nM |
| N=C(N)NCCCC(NC(=O)[C@@H]1CCCN1C(=O)CC(c1ccccc1)c1ccccc1)C(=O)c1nc2ccccc2s1 (stereo partly drawn) | 29 nM |
| CS(=O)(=O)CC[C@H](NS(=O)(=O)Cc1ccccc1)C(=O)N1CCC[C@H]1C(=O)N[C@@H](CCCNC(=N)N)C(=O)c1nc2ccccc2s1 | 37 nM |
| CN[C@H](Cc1ccccc1)C(=O)N1CCC[C@H]1C(=O)NC(CCCN=C(N)N)C(=O)c1nc2ccccc2n1C (stereo partly drawn) | 59 nM |
| CN[C@H](Cc1ccccc1)C(=O)N1CCC[C@H]1C(=O)N[C@@H](CCCNC(=N)N)C(=O)c1nccn1C | 230 nM |
| CN[C@@H](C(=O)N1CCC[C@H]1C(=O)NC(CCCN=C(N)N)C(=O)c1nc2ccccc2s1)c1ccccc1 (stereo partly drawn) | 17 nM |
| N=C(N)NCCC[C@H](NC(=O)[C@@H]1CCCN1C(=O)[C@H](CO)NS(=O)(=O)c1cccc2ccccc12)C(=O)c1nc2ccccc2s1 | 34 nM |
| CN[C@H](Cc1ccccc1)C(=O)N1CCCC[C@H]1C(=O)NC(CCCN=C(N)N)C(=O)c1nc2ccccc2s1 (stereo partly drawn) | 10 nM |

Target: T2, Serine protease 1 (Bos taurus, UniProt P00760)
T2 sequence (P00760 whole entry): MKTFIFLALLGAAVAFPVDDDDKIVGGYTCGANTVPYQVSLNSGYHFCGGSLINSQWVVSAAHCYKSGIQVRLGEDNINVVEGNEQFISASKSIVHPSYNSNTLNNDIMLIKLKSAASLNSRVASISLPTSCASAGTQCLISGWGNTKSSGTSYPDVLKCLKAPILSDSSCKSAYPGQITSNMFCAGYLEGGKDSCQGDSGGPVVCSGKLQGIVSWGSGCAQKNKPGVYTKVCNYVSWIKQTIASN
Experiment: Binding affinity against bovine trypsin

| Compound | Ki |
| --- | --- |
| CN[C@H](Cc1ccccc1)C(=O)N1CCC[C@H]1C(=O)NC(CCCN=C(N)N)C(=O)c1nc2ccc(C(N)=O)cc2s1 (stereo partly drawn) | 0.3 nM |
| NC(N)=NCCCC(NC(=O)[C@@H]1CCCN1C(=O)[C@H](N)Cc1ccccc1)C(=O)c1nc2ccccc2s1 (stereo partly drawn) | 0.3 nM |
| N=C(N)NCCC[C@H](NC(=O)CN1CCCC[C@H](NS(=O)(=O)Cc2ccccc2)C1=O)C(=O)c1nc2ccccc2s1 | 9.4 nM |
| N=C(N)NCCCC(NC(=O)[C@@H]1CCCN1C(=O)[C@@H](CC1CCCCC1)NCC(=O)O)C(=O)c1nc2ccccc2s1 (stereo partly drawn) | 22 nM |
| N=C(N)NCCCC(NC(=O)[C@@H]1CCCN1C(=O)C(O)C1c2ccccc2-c2ccccc21)C(=O)c1nc2ccccc2s1 (stereo partly drawn) | 2 nM |
| N=C(N)NCCCC(NC(=O)[C@@H]1CCCN1C(=O)CC(c1ccccc1)c1ccccc1)C(=O)c1nc2ccccc2s1 (stereo partly drawn) | 22 nM |
| CS(=O)(=O)CC[C@H](NS(=O)(=O)Cc1ccccc1)C(=O)N1CCC[C@H]1C(=O)N[C@@H](CCCNC(=N)N)C(=O)c1nc2ccccc2s1 | 2.7 nM |
| CN[C@H](Cc1ccccc1)C(=O)N1CCC[C@H]1C(=O)NC(CCCN=C(N)N)C(=O)c1nc2ccccc2n1C (stereo partly drawn) | 290 nM |
| CN[C@H](Cc1ccccc1)C(=O)N1CCC[C@H]1C(=O)N[C@@H](CCCNC(=N)N)C(=O)c1nccn1C | 5800 nM |
| CN[C@H](Cc1ccccc1)C(=O)N1CCC[C@H]1C(=O)N[C@@H](C(=O)c1nc2ccccc2s1)C1CCC(CN)CC1 (stereo partly drawn) | 4000 nM |
| N=C(N)NCCC[C@H](NC(=O)[C@@H]1CCCN1C(=O)[C@H](CO)NS(=O)(=O)c1cccc2ccccc12)C(=O)c1nc2ccccc2s1 | 2.9 nM |
| CNCCCC[C@@H](NC(=O)[C@@H]1CCCN1C(=O)[C@@H](Cc1ccccc1)NC)C(=O)c1nc2ccccc2s1 | 1000 nM |
| CN[C@H](Cc1ccccc1)C(=O)N1CCCC[C@H]1C(=O)NC(CCCN=C(N)N)C(=O)c1nc2ccccc2s1 (stereo partly drawn) | 1.8 nM |
| CN[C@H](Cc1ccccc1)C(=O)N1CCC[C@H]1C(=O)N[C@@](C)(CCCN=C(N)N)C(=O)c1nc2ccccc2s1 | 6000 nM |

Target: T1, Prothrombin
Experiment: Inhibitory concentration against human alpha thrombin

| Compound | IC50 |
| --- | --- |
| CN[C@H](Cc1ccccc1)C(=O)N1CCC[C@H]1C(=O)N[C@H](CC(=O)c1nc2ccccc2s1)[C@H]1CC[C@H](N)CC1 | > 100000 nM |
| N=C(N)NCCC[C@H](NC(=O)CN1CCCC[C@H](NS(=O)(=O)Cc2ccccc2)C1=O)C(=O)c1nc2ccccc2s1 | 270 nM |
| N=C(N)NCCCC(NC(=O)[C@@H]1CCCN1C(=O)[C@@H](CC1CCCCC1)NCC(=O)O)C(=O)c1nc2ccccc2s1 (stereo partly drawn) | 29 nM |
| N=C(N)NCCCC(NC(=O)[C@@H]1CCCN1C(=O)C(O)C1c2ccccc2-c2ccccc21)C(=O)c1nc2ccccc2s1 (stereo partly drawn) | 95 nM |
| N=C(N)NCCCC(NC(=O)[C@@H]1CCCN1C(=O)CC(c1ccccc1)c1ccccc1)C(=O)c1nc2ccccc2s1 (stereo partly drawn) | 11 nM |
| CS(=O)(=O)CC[C@H](NS(=O)(=O)Cc1ccccc1)C(=O)N1CCC[C@H]1C(=O)N[C@@H](CCCNC(=N)N)C(=O)c1nc2ccccc2s1 | 95 nM |
| CN[C@H](Cc1ccccc1)C(=O)N1CCC[C@H]1C(=O)N[C@@H](CC(=O)c1nc2ccccc2s1)[C@H]1CC[C@H](N)CC1 | > 100000 nM |
| CN[C@H](Cc1ccccc1)C(=O)N1CCC[C@H]1C(=O)NC(CCCN=C(N)N)C(=O)c1nc2ccccc2n1C (stereo partly drawn) | 110 nM |
| CN[C@H](Cc1ccccc1)C(=O)N1CCC[C@H]1C(=O)N[C@@H](CCCNC(=N)N)C(=O)c1nccn1C | 1500 nM |
| CN[C@@H](C(=O)N1CCC[C@H]1C(=O)NC(CCCN=C(N)N)C(=O)c1nc2ccccc2s1)c1ccccc1 (stereo partly drawn) | 34 nM |
| N=C(N)NCCC[C@H](NC(=O)[C@@H]1CCCN1C(=O)[C@H](CO)NS(=O)(=O)c1cccc2ccccc12)C(=O)c1nc2ccccc2s1 | 110 nM |
| CN[C@H](Cc1ccccc1)C(=O)N1CCCC[C@H]1C(=O)NC(CCCN=C(N)N)C(=O)c1nc2ccccc2s1 (stereo partly drawn) | 38 nM |
| CN[C@H](Cc1ccccc1)C(=O)N1CCC[C@H]1C(=O)N[C@@](C)(CCCN=C(N)N)C(=O)c1nc2ccccc2s1 | 3700 nM |

Tested on: Cavia porcellus
Experiment: Percent change in blood pressure in guinea pig at 3 mg/kg dose

| Compound | Delta BP |
| --- | --- |
| N=C(N)NCCCC(NC(=O)[C@@H]1CCCN1C(=O)CC(c1ccccc1)c1ccccc1)C(=O)c1nc2ccccc2s1 (stereo partly drawn) | -25% |
| CN[C@H](Cc1ccccc1)C(=O)N1CCC[C@H]1C(=O)NC(CCCN=C(N)N)C(=O)c1nc2ccccc2n1C (stereo partly drawn) | -30% |
| CN[C@@H](C(=O)N1CCC[C@H]1C(=O)NC(CCCN=C(N)N)C(=O)c1nc2ccccc2s1)c1ccccc1 (stereo partly drawn) | -63% |
| CN[C@H](Cc1ccccc1)C(=O)N1CCCC[C@H]1C(=O)NC(CCCN=C(N)N)C(=O)c1nc2ccccc2s1 (stereo partly drawn) | -45% |

Tested on: Cavia porcellus
Experiment: Percent change in blood pressure in guinea pig at 20 mg/kg dose

| Compound | Delta BP |
| --- | --- |
| N=C(N)NCCC[C@H](NC(=O)[C@@H]1CCCN1C(=O)[C@H](CO)NS(=O)(=O)c1cccc2ccccc12)C(=O)c1nc2ccccc2s1 | -30% |

Target: T2, Serine protease 1
Experiment: Inhibitory concentration against bovine trypsin; ND=Not determined

| IC50 | Compound |
| --- | --- |
| 58000 nM | CN[C@H](Cc1ccccc1)C(=O)N1CCC[C@H]1C(=O)N[C@H](CC(=O)c1nc2ccccc2s1)[C@H]1CC[C@H](N)CC1 |
| 22000 nM | CN[C@H](Cc1ccccc1)C(=O)N1CCC[C@H]1C(=O)N[C@@H](CC(=O)c1nc2ccccc2s1)[C@H]1CC[C@H](N)CC1 |

Target: T1, Prothrombin
Experiment: Binding affinity against human alpha thrombin; SB = slow-binding kinetics

| Ki | Compound |
| --- | --- |
| Slow Binding | NC(N)=NCCCC(NC(=O)[C@@H]1CCCN1C(=O)[C@H](N)Cc1ccccc1)C(=O)c1nc2ccccc2s1 (stereo partly drawn) |

Target: T1, Prothrombin
Experiment: Binding affinity against human alpha thrombin; SB = Slow-binding

| Ki | Compound |
| --- | --- |
| 430 nM | CN[C@H](Cc1ccccc1)C(=O)N1CCC[C@H]1C(=O)N[C@@](C)(CCCN=C(N)N)C(=O)c1nc2ccccc2s1 |

Target: T1, Prothrombin
Experiment: Inhibitory concentration against human alpha thrombin; NT=Not active at 300 uM

| Compound | IC50 |
| --- | --- |
| N=C(N)NCCCCC(=O)c1nc2ccccc2s1 | Not Active |

Target: T1, Prothrombin
Experiment: Inhibition constant against human alpha thrombin

| Compound | Ki |
| --- | --- |
| N=C(N)NCCCC(NC(=O)[C@@H]1CCCN1C(=O)CC(c1ccccc1)c1ccccc1)C(=O)c1nc2ccccc2s1 (stereo partly drawn) | 3.1 nM |
| N=C(N)NCCC[C@H](NC(=O)[C@@H]1CCCN1C(=O)[C@H](CO)NS(=O)(=O)c1cccc2ccccc12)C(=O)c1nc2ccccc2s1 | 10 nM |

Target: T1, Prothrombin
Experiment: Binding affinity against human alpha thrombin; […]

| Ki | Compound |
| --- | --- |
| Slow Binding | CN[C@H](Cc1ccccc1)C(=O)N1CCC[C@H]1C(=O)NC(CCCN=C(N)N)C(=O)c1nc2ccc(C(N)=O)cc2s1 (stereo partly drawn) |

Target: T1, Prothrombin
Experiment: Inhibitory concentration against human alpha thrombin; NA=Not active at 1 uM

| Compound | IC50 |
| --- | --- |
| CN[C@H](Cc1ccccc1)C(=O)N1CCC[C@H]1C(=O)N[C@@H](C(=O)c1nc2ccccc2s1)C1CCC(CN)CC1 (stereo partly drawn) | Not Active |
| CNCCCC[C@@H](NC(=O)[C@@H]1CCCN1C(=O)[C@@H](Cc1ccccc1)NC)C(=O)c1nc2ccccc2s1 | Not Active |

Target: T2, Serine protease 1
Experiment: Binding affinity against bovine trypsin; NT=Not active at 100 uM

| Compound | Ki |
| --- | --- |
| N=C(N)NCCCCC(=O)c1nc2ccccc2s1 | Not Active |

Tested on: Cavia porcellus
Experiment: Percent change in blood pressure in guinea pig at 10 mg/kg dose

| Compound | Delta BP |
| --- | --- |
| N=C(N)NCCC[C@H](NC(=O)CN1CCCC[C@H](NS(=O)(=O)Cc2ccccc2)C1=O)C(=O)c1nc2ccccc2s1 | -39% |
| N=C(N)NCCCC(NC(=O)[C@@H]1CCCN1C(=O)[C@@H](CC1CCCCC1)NCC(=O)O)C(=O)c1nc2ccccc2s1 (stereo partly drawn) | -47% |
| N=C(N)NCCCC(NC(=O)[C@@H]1CCCN1C(=O)C(O)C1c2ccccc2-c2ccccc21)C(=O)c1nc2ccccc2s1 (stereo partly drawn) | -71% |
| CS(=O)(=O)CC[C@H](NS(=O)(=O)Cc1ccccc1)C(=O)N1CCC[C@H]1C(=O)N[C@@H](CCCNC(=N)N)C(=O)c1nc2ccccc2s1 | -64% |
| CN[C@H](Cc1ccccc1)C(=O)N1CCC[C@H]1C(=O)N[C@@H](CCCNC(=N)N)C(=O)c1nccn1C | -68% |
